Where a SMILES comes first, the peptide text is derived from it.
Target: T1, β-catenin (Homo sapiens, UniProt P35222)
T1 sequence (P35222 1-781): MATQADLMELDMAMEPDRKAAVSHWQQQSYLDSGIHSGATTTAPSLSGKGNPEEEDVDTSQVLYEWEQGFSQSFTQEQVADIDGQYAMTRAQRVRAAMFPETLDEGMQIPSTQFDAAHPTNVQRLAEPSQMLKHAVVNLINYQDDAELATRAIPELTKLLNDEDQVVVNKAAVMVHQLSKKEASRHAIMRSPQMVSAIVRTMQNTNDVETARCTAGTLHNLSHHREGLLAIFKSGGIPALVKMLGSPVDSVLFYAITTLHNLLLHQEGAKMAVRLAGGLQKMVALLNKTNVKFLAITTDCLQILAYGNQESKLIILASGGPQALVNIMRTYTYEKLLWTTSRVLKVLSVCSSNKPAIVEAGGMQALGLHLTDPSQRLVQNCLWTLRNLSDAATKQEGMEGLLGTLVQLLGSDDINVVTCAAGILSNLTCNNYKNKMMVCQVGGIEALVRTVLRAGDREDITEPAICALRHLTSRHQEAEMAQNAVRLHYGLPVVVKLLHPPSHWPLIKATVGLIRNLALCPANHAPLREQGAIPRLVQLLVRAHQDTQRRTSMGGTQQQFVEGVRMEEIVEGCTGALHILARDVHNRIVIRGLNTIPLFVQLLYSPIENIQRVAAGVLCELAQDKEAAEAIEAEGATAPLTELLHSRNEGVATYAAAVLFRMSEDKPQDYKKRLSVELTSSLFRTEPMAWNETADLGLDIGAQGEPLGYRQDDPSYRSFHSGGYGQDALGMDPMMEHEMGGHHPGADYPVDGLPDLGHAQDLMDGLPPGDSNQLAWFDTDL
Assay: KD50 measurement using competitive fluorescence polarization (FP) with labelled TCF4
Assay type: binding
Conditions: fluorescence polarization, β-catenin; for Kd: read-out: β-Cat FP KD
Method in brief: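 Labelled TCF4 (5 nM) mixed with 100 nM β-catenin at room temperature; inhibitor added as serial dilutions from 10 nM to 30 uM. Polarization read at excitation 470 nm/emission 520 nm; binding displacement lowers polarization. Three independent runs.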

SMILES	β-Cat FP Hill slope	Kd
CC[C@H](C)[C@@H]1NC(=O)[C@@H](NC(=O)[C@H](CCC(N)=O)NC(=O)C(C)(C)NC(=O)[C@H](Cc2c[nH]c3ccccc23)NC(C)=O)CCCCNC(=O)C[C@@H](C(=O)N[C@@H](Cc2c[nH]cn2)C(=O)N[C@H](C(=O)N[C@@H](CCC(N)=O)C(=O)N[C@@H](CCCNC(=N)N)C(=O)N[C@H](C(=O)N[C@@H](Cc2c[nH]c3ccccc23)C(N)=O)C(C)C)C2CCCCC2)NC(=O)[C@H](CC(N)=O)NC(=O)[C@H](CC(C)C)NC1=O [compound 455] (HELM PEPTIDE1{[ac].W.[Aib].Q.K.I.L.N.D.H.[O=C([C@@H](N[*:1])C1CCCCC1)[*:2]].Q.R.V.W.[am]}$PEPTIDE1,PEPTIDE1,5:R3-9:R3$$$V2.0)	1.03	< 0.4 µM
CC[C@H](C)[C@@H]1NC(=O)[C@@H](NC(=O)[C@H](CCC(N)=O)NC(=O)[C@H](C)N(C)C(=O)[C@H](Cc2c[nH]c3ccccc23)NC(C)=O)CCCCNC(=O)C[C@@H](C(=O)N[C@@H](Cc2c[nH]cn2)C(=O)N[C@H](C(=O)N[C@@H](CCC(N)=O)C(=O)N[C@@H](C)C(=O)N[C@H](C(=O)N[C@@H](Cc2c[nH]c3ccccc23)C(N)=O)C(C)C)C2CCCCC2)NC(=O)[C@H](CC(N)=O)NC(=O)[C@H](CC(C)C)NC1=O [compound 458] (HELM PEPTIDE1{[ac].W.[meA].Q.K.I.L.N.D.H.[O=C([C@@H](N[*:1])C1CCCCC1)[*:2]].Q.A.V.W.[am]}$PEPTIDE1,PEPTIDE1,5:R3-9:R3$$$V2.0)	0.7	0.4 to 1 µM
CCCCCCCCCCCC(=O)N[C@@H](Cc1c[nH]c2ccccc12)C(=O)N(C)[C@@H](C)C(=O)N[C@@H](CCC(N)=O)C(=O)N[C@H]1CCCCNC(=O)C[C@@H](C(=O)N[C@@H](Cc2c[nH]cn2)C(=O)N[C@H](C(=O)N[C@@H](CCC(N)=O)C(=O)N[C@@H](C)C(=O)N[C@H](C(=O)N[C@@H](Cc2c[nH]c3ccccc23)C(N)=O)C(C)C)C2CCCCC2)NC(=O)[C@H](CC(N)=O)NC(=O)[C@H](CC(C)C)NC(=O)[C@H]([C@@H](C)CC)NC1=O [compound 459] (HELM PEPTIDE1{[CCCCCCCCCCCC(=O)[*:2]].W.[meA].Q.K.I.L.N.D.H.[O=C([C@@H](N[*:1])C1CCCCC1)[*:2]].Q.A.V.W.[am]}$PEPTIDE1,PEPTIDE1,5:R3-9:R3$$$V2.0)	–	< 0.4 µM
CC[C@H](C)[C@H](NC(=O)[C@H](CO)NC(=O)[C@H](CCC(N)=O)NC(=O)[C@H](C)N(C)C(=O)[C@H](Cc1c[nH]c2ccccc12)NC(C)=O)C(=O)N[C@@H](CC(C)C)C(=O)N[C@@H](CC(=O)O)C(=O)N[C@H]1CCCCNC(=O)C[C@@H](C(=O)N[C@H](C(=O)N[C@@H](Cc2c[nH]c3ccccc23)C(N)=O)C(C)C)NC(=O)[C@H](CCC(N)=O)NC(=O)[C@H](C2CCCCC2)NC(=O)[C@H](Cc2c[nH]cn2)NC1=O [compound 460] (HELM PEPTIDE1{[ac].W.[meA].Q.S.I.L.D.K.H.[O=C([C@@H](N[*:1])C1CCCCC1)[*:2]].Q.D.V.W.[am]}$PEPTIDE1,PEPTIDE1,9:R3-13:R3$$$V2.0)	0.7	< 0.4 µM
CCCCCCCCCCCC(=O)N[C@@H](Cc1c[nH]c2ccccc12)C(=O)N(C)[C@@H](C)C(=O)N[C@@H](CCC(N)=O)C(=O)N[C@@H](CO)C(=O)N[C@H](C(=O)N[C@@H](CC(C)C)C(=O)N[C@@H](CC(=O)O)C(=O)N[C@H]1CCCCNC(=O)C[C@@H](C(=O)N[C@H](C(=O)N[C@@H](Cc2c[nH]c3ccccc23)C(N)=O)C(C)C)NC(=O)[C@H](CCC(N)=O)NC(=O)[C@H](C2CCCCC2)NC(=O)[C@H](Cc2c[nH]cn2)NC1=O)[C@@H](C)CC [compound 461] (HELM PEPTIDE1{[CCCCCCCCCCCC(=O)[*:2]].W.[meA].Q.S.I.L.D.K.H.[O=C([C@@H](N[*:1])C1CCCCC1)[*:2]].Q.D.V.W.[am]}$PEPTIDE1,PEPTIDE1,9:R3-13:R3$$$V2.0)	–	< 0.4 µM
CC[C@H](C)[C@H](NC(=O)[C@H](CO)NC(=O)[C@H](CCC(N)=O)NC(=O)[C@@H]1CCCN1C(=O)[C@H](Cc1c[nH]c2ccccc12)NC(C)=O)C(=O)N[C@@H](CC(C)C)C(=O)N[C@@H](CC(=O)O)C(=O)N[C@H]1CCCCNC(=O)C[C@@H](C(=O)N[C@H](C(=O)N[C@@H](Cc2c[nH]c3ccccc23)C(N)=O)C(C)C)NC(=O)[C@H](CCC(N)=O)NC(=O)[C@H](C2CCCCC2)NC(=O)[C@H](Cc2c[nH]cn2)NC1=O [compound 462] (HELM PEPTIDE1{[ac].W.P.Q.S.I.L.D.K.H.[O=C([C@@H](N[*:1])C1CCCCC1)[*:2]].Q.D.V.W.[am]}$PEPTIDE1,PEPTIDE1,9:R3-13:R3$$$V2.0)	0.76	< 0.4 µM
CCCCCCCCCCCC(=O)N[C@@H](Cc1c[nH]c2ccccc12)C(=O)N1CCC[C@H]1C(=O)N[C@@H](CCC(N)=O)C(=O)N[C@@H](CO)C(=O)N[C@H](C(=O)N[C@@H](CC(C)C)C(=O)N[C@@H](CC(=O)O)C(=O)N[C@H]1CCCCNC(=O)C[C@@H](C(=O)N[C@H](C(=O)N[C@@H](Cc2c[nH]c3ccccc23)C(N)=O)C(C)C)NC(=O)[C@H](CCC(N)=O)NC(=O)[C@H](C2CCCCC2)NC(=O)[C@H](Cc2c[nH]cn2)NC1=O)[C@@H](C)CC [compound 463] (HELM PEPTIDE1{[CCCCCCCCCCCC(=O)[*:2]].W.P.Q.S.I.L.D.K.H.[O=C([C@@H](N[*:1])C1CCCCC1)[*:2]].Q.D.V.W.[am]}$PEPTIDE1,PEPTIDE1,9:R3-13:R3$$$V2.0)	–	< 0.4 µM
CC[C@H](C)[C@@H]1NC(=O)[C@@H](NC(=O)[C@H](CCC(N)=O)NC(=O)[C@H](C)N(C)C(=O)[C@H](Cc2c[nH]c3ccccc23)NC(C)=O)CCCCNC(=O)CC[C@@H](C(=O)N[C@@H](Cc2c[nH]cn2)C(=O)N[C@H](C(=O)N[C@H]2CCC(=O)NCCCC[C@@H](C(N)=O)NC(=O)[C@H](Cc3c[nH]c4ccccc34)NC(=O)[C@H](C(C)C)NC(=O)[C@H](CC(=O)O)NC2=O)C2CCCCC2)NC(=O)[C@H](CC(=O)O)NC(=O)[C@H](CC(C)C)NC1=O [compound 464] (HELM PEPTIDE1{[ac].W.[meA].Q.K.I.L.D.E.H.[O=C([C@@H](N[*:1])C1CCCCC1)[*:2]].E.D.V.W.K.[am]}$PEPTIDE1,PEPTIDE1,5:R3-9:R3|PEPTIDE1,PEPTIDE1,12:R3-16:R3$$$V2.0; bridges inferred)	0.7	–
CC[C@H](C)[C@H](NC(=O)[C@H](CO)NC(=O)[C@H](CCC(N)=O)NC(=O)[C@H](C)N(C)C(=O)[C@H](Cc1c[nH]c2ccccc12)NC(C)=O)C(=O)N[C@@H](CC(C)C)C(=O)N[C@@H](CC(=O)O)C(=O)N[C@H]1CCC(=O)NCCCC[C@@H](C(=O)N[C@H](C(=O)N[C@@H](Cc2c[nH]c3ccccc23)C(N)=O)C(C)C)NC(=O)[C@H](CCC(N)=O)NC(=O)[C@H](C2CCCCC2)NC(=O)[C@H](Cc2c[nH]cn2)NC1=O [compound 466] (HELM PEPTIDE1{[ac].W.[meA].Q.S.I.L.D.E.H.[O=C([C@@H](N[*:1])C1CCCCC1)[*:2]].Q.K.V.W.[am]}$PEPTIDE1,PEPTIDE1,9:R3-13:R3$$$V2.0)	0.72	< 0.4 µM
CCCCCCCCCCCC(=O)N[C@@H](Cc1c[nH]c2ccccc12)C(=O)N(C)[C@@H](C)C(=O)N[C@@H](CCC(N)=O)C(=O)N[C@@H](CO)C(=O)N[C@H](C(=O)N[C@@H](CC(C)C)C(=O)N[C@@H](CC(=O)O)C(=O)N[C@H]1CCC(=O)NCCCC[C@@H](C(=O)N[C@H](C(=O)N[C@@H](Cc2c[nH]c3ccccc23)C(N)=O)C(C)C)NC(=O)[C@H](CCC(N)=O)NC(=O)[C@H](C2CCCCC2)NC(=O)[C@H](Cc2c[nH]cn2)NC1=O)[C@@H](C)CC [compound 467] (HELM PEPTIDE1{[CCCCCCCCCCCC(=O)[*:2]].W.[meA].Q.S.I.L.D.E.H.[O=C([C@@H](N[*:1])C1CCCCC1)[*:2]].Q.K.V.W.[am]}$PEPTIDE1,PEPTIDE1,9:R3-13:R3$$$V2.0)	–	< 0.4 µM
CC[C@H](C)[C@H](NC(=O)[C@H](CO)NC(=O)[C@H](CCC(N)=O)NC(=O)[C@@H]1CCCN1C(=O)[C@H](Cc1c[nH]c2ccccc12)NC(C)=O)C(=O)N[C@@H](CC(C)C)C(=O)N[C@@H](CC(=O)O)C(=O)N[C@H]1CCC(=O)NCCCC[C@@H](C(=O)N[C@H](C(=O)N[C@@H](Cc2c[nH]c3ccccc23)C(N)=O)C(C)C)NC(=O)[C@H](CCC(N)=O)NC(=O)[C@H](C2CCCCC2)NC(=O)[C@H](Cc2c[nH]cn2)NC1=O [compound 468] (HELM PEPTIDE1{[ac].W.P.Q.S.I.L.D.E.H.[O=C([C@@H](N[*:1])C1CCCCC1)[*:2]].Q.K.V.W.[am]}$PEPTIDE1,PEPTIDE1,9:R3-13:R3$$$V2.0)	0.86	< 0.4 µM
CCCCCCCCCCCC(=O)N[C@@H](Cc1c[nH]c2ccccc12)C(=O)N1CCC[C@H]1C(=O)N[C@@H](CCC(N)=O)C(=O)N[C@@H](CO)C(=O)N[C@H](C(=O)N[C@@H](CC(C)C)C(=O)N[C@@H](CC(=O)O)C(=O)N[C@H]1CCC(=O)NCCCC[C@@H](C(=O)N[C@H](C(=O)N[C@@H](Cc2c[nH]c3ccccc23)C(N)=O)C(C)C)NC(=O)[C@H](CCC(N)=O)NC(=O)[C@H](C2CCCCC2)NC(=O)[C@H](Cc2c[nH]cn2)NC1=O)[C@@H](C)CC [compound 469] (HELM PEPTIDE1{[CCCCCCCCCCCC(=O)[*:2]].W.P.Q.S.I.L.D.E.H.[O=C([C@@H](N[*:1])C1CCCCC1)[*:2]].Q.K.V.W.[am]}$PEPTIDE1,PEPTIDE1,9:R3-13:R3$$$V2.0)	–	< 0.4 µM

— patent US12441768B2, “Compositions and methods for treating endometriosis” (EndoMet Biosciences, Inc., priority 2018, dated 2025)
